Measurements as given in patent US20200085868A1, “Method For Treating Cancer” (China Medical University Hospital, priority 2018, published 2020).
“Also recorded” adds a separate entry of the source.

Tests used:
Type in all cases: cell-based
[1] = system: HLA-G expression of the human pancreatic cancer cell line AsPC1; experiment: HLA-G expression of tumor cells treated with chemotherapy drug, flow cytometry; settings: AsPC1, gemcitabine 20 μM, 48 hours; control 13.18%
Description: (§1) The human ovarian cancer cell line SKOV3 is cultured in McCoy's 5A culture medium containing 10% FBS.
(§2) First, the human breast cancer cell line MDA-MB-231, the human malignant brain tumor cell line DBTRG, the human pancreatic cancer cell line AsPC1 and the human ovarian cancer cell line SKOV3 are seeded in a 6-well plate at a density of 2×10^5 cells/well. The cells are subsequently incubated for 24 hours. […] In a control, the tumor cells are untreated.
(§3) Please refer to FIGS. 2A, 2B, 2C, 2D and 2E, which are analytical results of flow cytometry showing a HLA-G expression of tumor cells treated with a chemotherapy drug. FIG. 2A is analytical result of flow cytometry of the human breast cancer cell line MDA-MB-231. FIG. 2B is analytical result of flow cytometry of the human malignant brain tumor cell line DBTRG. FIG. 2C is analytical result of flow cytometry of the human pancreatic cancer cell line AsPC1. FIG. 2D is analytical result of flow cytometry of the human ovarian cancer cell line SKOV3. FIG. 2E is a statistical chart of FIGS. 2A, 2B, 2C and 2D.

[2] = system: human pancreatic cancer cell line AsPC1; experiment: Tumor cell death (cytotoxicity), Annexin V-FITC and PI staining, flow cytometry; settings: group 1: chemotherapy drug alone, gemcitabine 20 μM
Description: (§4) First, the human breast cancer cell line MDA-MB-231, the human malignant brain tumor cell line DBTRG, the human pancreatic cancer cell line AsPC1 and the human ovarian cancer cell line SKOV3 are seeded in a 12-well plate at a density of 1×10^5 cells/well. The cells are subsequently incubated for 24 hours. Each type of the tumor cells is divided into six groups. In a control, the tumor cells are untreated. In a group 1, the tumor cells are treated with the chemotherapy drug. In a group 2, the tumor cells are treated with the parental NK-92 cell line. In a group 3, the tumor cells are treated with the parental NK-92 cell line and the chemotherapy drug. In the groups 2 and 3, the number of the parental NK-92 cell line treated is 1×10^5 cells. In a group 4, the tumor cells are treated with the chimeric antigen receptor expressing cell of Example 1. […] The treated cells are stained with Annexin V-FITC and propidium iodide (PI), and the apoptosis and the death of the tumor cells are detected by the flow cytometry. The sum of the percentage of cells stained with Annexin V-FITC and/or PI (that is the percentage of cells in the first quadrant, the second quadrant, and the fourth quadrant of the bivariate flow cytometry scatter plot) are calculated to obtain the cytotoxicity. The results of the cytotoxicity are counted after the three independent trials in each group. […]

[3] = system: HLA-G expression level on the plasma membrane of the human ovarian cancer cell line SKOV3; experiment: HLA-G expression level of tumor cells treated with chemotherapy drug, immunofluorescence staining assay; settings: SKOV3, carboplatin 20 μM, 48 hours, vs untreated control
Description: (§5) To investigate effect of the treatment of the chemotherapy drug on the tumor cells, the tumor cells are treated with the chemotherapy drug, and then detecting the HLA-G expression level of the tumor cells.
(§6) The tumor cells used are human breast cancer cell line MDA-MB-231, human malignant brain tumor cell line DBTRG-05MG (hereinafter referred to as DBTRG), human pancreatic cancer cell line AsPC1, and human ovarian cancer cell line SKOV3. The tumor cell lines used are all purchased from the American Type Culture Collection (ATCC). The human breast cancer cell line MDA-MB-231 is a triple-negative breast cancer cell line, that is, the hormone receptor (ER, PR) and HER-2 receptor thereof are negative, and the human breast cancer cell line MDA-MB-231 is cultured in RPMI culture medium containing 10% fetal bovine serum (FBS). The human malignant brain tumor cell line DBTRG is cultured in DMEM culture medium containing 10% FBS. […]
(§7) First, the human breast cancer cell line MDA-MB-231, the human malignant brain tumor cell line DBTRG, the human pancreatic cancer cell line AsPC1 and the human ovarian cancer cell line SKOV3 are seeded in a 6-well plate at a density of 2×10^5 cells/well. […] Then, the HLA-G expression level of the tumor cells are detected by immunofluorescence staining assay and flow cytometry.

[4] = system: HLA-G expression of the human ovarian cancer cell line SKOV3; experiment: HLA-G expression of tumor cells treated with chemotherapy drug, flow cytometry; settings: SKOV3, carboplatin 20 μM, 48 hours; control 14.69%
Description: as §1, §2, §3

[5] = system: human ovarian cancer cell line SKOV3; experiment: Tumor cell death (cytotoxicity), Annexin V-FITC and PI staining, flow cytometry; settings: group 1: chemotherapy drug alone, carboplatin 20 μM; control less than 10%
Description: as §4

[6] = system: HLA-G expression of the human malignant brain tumor cell line DBTRG; experiment: HLA-G expression of tumor cells treated with chemotherapy drug, flow cytometry; settings: temozolomide 80 μg/mL, 48 hours, control 14.01%
Description: as §5, §6, §7

[7] = system: HLA-G expression level on the plasma membrane of the human breast cancer cell line MDA-MB-231; experiment: HLA-G expression level of tumor cells treated with chemotherapy drug, immunofluorescence staining assay; settings: MDA-MB-231, doxorubicin 200 nM, 48 hours, vs untreated control
Description: as §5, §6, §7

[8] = system: HLA-G expression of the human breast cancer cell line MDA-MB-231; experiment: HLA-G expression of tumor cells treated with chemotherapy drug, flow cytometry; settings: MDA-MB-231, doxorubicin 200 nM, 48 hours; control 12.27%
Description: as §5, §6, §7

[9] = system: human breast cancer cell line MDA-MB-231; experiment: Tumor cell death (cytotoxicity), Annexin V-FITC and PI staining, flow cytometry; settings: group 1: chemotherapy drug alone, doxorubicin 200 nM; control about 10%
Description: (§8) The cells are subsequently incubated for 24 hours. […] In a control, the tumor cells are untreated.
as §8, §8

Compound: Nc1ccn([C@@H]2O[C@H](CO)[C@@H](O)C2(F)F)c(=O)n1 [gemcitabine]
- mean fluorescence intensity (MFI) of HLA-G [1]: 41.44%
- death rate of AsPC1 [2]: increased, but there is no statistically significant difference compared to the control; also recorded: comparable to that of the control

Compound: N.N.O=C([O-])C1(C(=O)[O-])CCC1.[Pt+2] [carboplatin]
- HLA-G expression level on the plasma membrane [3]: increase
- mean fluorescence intensity (MFI) of HLA-G [4]: 38.58%
- death rate of SKOV3 [5]: increased, but there is no statistically significant difference compared to the control; also recorded: comparable to that of the control

Compound: Cn1nnc2c(C(N)=O)ncn2c1=O [temozolomide]
- mean fluorescence intensity (MFI) of HLA-G [6]: 22.33%

Compound: COc1cccc2c1C(=O)c1c(O)c3c(c(O)c1C2=O)C[C@@](O)(C(=O)CO)C[C@@H]3O[C@H]1C[C@H](N)[C@H](O)[C@H](C)O1 [doxorubicin]
- HLA-G expression level on the plasma membrane [7]: increase
- mean fluorescence intensity (MFI) of HLA-G [8]: 64.45%
- death rate of MDA-MB-231 [9]: increased, but there is no statistically significant difference compared to the control
